Experimental data: publication PMC8954350, “Non-Canonical Cannabinoid Receptors with Distinct Binding and Signaling Properties in Prostate and Other Cancer Cell Types Mediate Cell Death” (International Journal of Molecular Sciences, 2022)
Like-named read-outs stand apart in the source and are kept apart here.

Columns and labels:
[1] = test system: CBRs expressed in PC-3 membranes; experiment: [^3H]WIN-55,212-2 competitive binding screen, PC-3 membranes; set-up: species or system human
Description: (§1) The assay was conducted as previously detailed. […] All binding reactions were conducted in triplicate, in a final volume of 1 mL, and, following mixing, were incubated for 20 min in a 37 °C water bath to achieve equilibrium. After incubation, reactions were terminated by rapid vacuum filtration through Whatman GF/B glass fiber filters (Brandel; Gaithersburg, MD, USA), followed by three washes of 4 mls of ice-cold filtration buffer (50 mM Tris, pH 7.4, and 0.05% bovine serum albumin). Samples were punched out from filter papers into scintillation vials, to which 4 mls of ScintiverseTM-BDR cocktail scintillation fluid (Fisher Scientific; Hampton, NH, USA) was added. Filters were incubated at room temperature for 24 h in scintillation fluid, vortexed, and radioactivity (measured as DPMs) was quantified via a liquid scintillation spectrophotometer (Tri Carb 2100 TR Liquid Scintillation Analyzer, Packard Instruments, Meriden, CT, USA).
(§2) These experiments were conducted to screen well-characterized cannabinoid ligands with high affinity for canonical CB1 and/or CB2Rs for binding to CBRs expressed in prostate cancer cells lines, as detailed in [33]. […] All binding reactions were conducted in triplicate, in a final volume of 1 mL, and, following mixing, were incubated for 20 min in a 37 °C water bath to achieve equilibrium. After incubation, reactions were terminated by rapid vacuum filtration and processed for radioactivity, as detailed in Section 4.5.1.

[2] = test system: CBRs expressed in DU-145 membranes; type: binding, human
Description: as §1, §2

[3] = test system: DU-145 cells; experiment: LDH cytotoxicity, DU-145 cells; type: cell-based, human; settings: 500 nM, 24 h
Description: DU-145 cells were seeded at a density of 130 × 10^3 cells/well in 6-well plates and maintained in an incubator at 37 °C with 5% CO2 for 24 h. […] Treated cells were incubated for an additional 24 h, followed by quantification of LDH release. LDH released from damaged or dying cells oxidizes lactate to produce NADH which then reacts with a water-soluble tetrazolium salt (WST) reagent to produce a yellow-colored product. The intensity of the yellow-colored product was detected with an OD reading at 450 nm (quantified by a BioTek microplate reader interfaced with SoftMax Pro 5.4.5 software; Winooski, VT, USA) and was directly proportional to the amount of LDH released. Percent cytotoxicity was calculated according to the manufacturer’s protocol as the following: % Cytotoxicity=OD450 Supernatant/Supernatant+Lysate

[4] = test system: DU-145 cells; experiment: Mitochondrial membrane potential (JC-1 staining), DU-145 cells; type: cell-based, human; settings: 24 h
[5] = test system: DU-145 cells; experiment: ATP-dependent cell viability, DU-145 cells; type: cell-based, human; settings: co-incubation with 10 μM ligand, 24 h
Description: Adenosine 5′-triphosphate (ATP) levels were quantified as a measure of DU-145 cell viability in response to cannabinoid treatement using an ATP-luciferase-based bioluminescence assay kit (CellTiter-Glo®, Sigma, MO, USA) and BioTek microplate reader (Winooski, VT, USA). DU-145 cells were seeded at a density of 8 × 10^3 cells/well in a 96-well plate and incubated for 24 h at 37 °C with 5% CO2. The next day, cells were treated with either vehicle or experimental drugs (10 or 50 μM) and incubated for another 24 h at 37 °C with 5% CO2. ATP levels were assessed following incubation by interpolation from an ATP standard curve according to the manufacturer’s protocol, as described previously.

[6] = test system: CBRs expressed in PC-3 membranes; experiment: [^35S]GTPγS binding, PC-3 membranes; type: biochemical, human; settings: 10 μM
Description: [^35S]GTPγS binding experiments were conducted to examine G protein modulation by cannabinoids in prostate cancer cell lines DU-145 and PC-3, as detailed previously. Briefly, CHO-hCB2 (50 μg), PC3 (100 μg), or DU-145 (100 μg) membrane homogenates were incubated with a single receptor-saturating concentration (10^−5 M) of cannabinoid ligands to be examined and 0.1 nM [^35S]GTPγS in incubation buffer (20 mM HEPES buffer, pH 7.4, 10 μM GDP, 100 mM NaCl, 0.1% bovine serum albumin, and 10 mM MgCl2). Non-specific binding was defined as radioactivity remaining in the presence of 10 μM of non-radioactive GTPγS and subtracted from total binding to determine specific [^35S]GTPγS binding. All binding reactions were conducted in triplicate, in a final volume of 1 mL, and, following mixing, were incubated for 30 min at 30 °C. After incubation, reactions were terminated by rapid vacuum filtration through Whatman GF/B glass fiber filters (Brandel; Gaithersburg, MD, USA), followed by three washes of 4 mls of ice-cold filtration buffer (50 mM Tris, pH 7.4, and 0.05% bovine serum albumin). Samples were punched out from filter papers into scintillation vials, to which 4 mls of ScintiverseTM-BDR cocktail scintillation fluid (Fisher Scientific; Hampton, NH, USA) was added. Filters were incubated at room temperature for 24 h in scintillation fluid, vortexed, and radioactivity (measured as DPMs) was determined via a liquid scintillation spectrophotometer (Tri Carb 2100 TR Liquid Scintillation Analyzer, Packard Instruments, Meriden, CT, USA).

[7] = test system: CBRs expressed in DU-145 membranes; type: biochemical, human; settings: 10 μM
Description: Non-specific binding was defined as radioactivity remaining in the presence of 10 μM of non-radioactive GTPγS and subtracted from total binding to determine specific [^35S]GTPγS binding. All binding reactions were conducted in triplicate, in a final volume of 1 mL, and, following mixing, were incubated for 30 min at 30 °C. After incubation, reactions were terminated by rapid vacuum filtration through Whatman GF/B glass fiber filters (Brandel; Gaithersburg, MD, USA), followed by three washes of 4 mls of ice-cold filtration buffer (50 mM Tris, pH 7.4, and 0.05% bovine serum albumin). Samples were punched out from filter papers into scintillation vials, to which 4 mls of ScintiverseTM-BDR cocktail scintillation fluid (Fisher Scientific; Hampton, NH, USA) was added. Filters were incubated at room temperature for 24 h in scintillation fluid, vortexed, and radioactivity (measured as DPMs) was determined via a liquid scintillation spectrophotometer (Tri Carb 2100 TR Liquid Scintillation Analyzer, Packard Instruments, Meriden, CT, USA).

[8] = 1 μM ligand, 1 nM radioligand, PC-3 membranes

| Structure (SMILES) | displacement of [^3H]WIN-55,212-2 [2] | displacement of [^3H]WIN-55,212-2 [1, 8] | further results |
| --- | --- | --- | --- |
| Cc1c(C(=O)c2cccc3ccccc23)c2cccc3c2n1[C@@H](CN1CCOCC1)CO3 [WIN-55,212-3] | 13.9 ± 2.7% |  | displacement of [^3H]WIN-55,212-2 [1]: 20.7 ± 10.3% |
| Cc1c(C(=O)Nc2cccc(C(F)(F)F)c2)cc(-c2ccccc2)n1CCCN1CCOCC1 [HC-067047] | 22 ± 3.8% |  |  |
| CC(=O)O[C@@]12CO[C@@H]1C[C@H](O)[C@@]1(C)C(=O)[C@H](O)C3=C(C)[C@@H](OC(=O)[C@H](O)[C@@H](NC(=O)OC(C)(C)C)c4ccccc4)C[C@@](O)([C@@H](OC(=O)c4ccccc4)[C@H]21)C3(C)C [docetaxel] |  |  | increase in LDH release [3]: 16.8 ± 3.4%; mitochondrial membrane potential (MMP) depolarization ([4]; 500 nM, JC-1): induced significant mitochondrial membrane depolarization |
| COc1cc(CNC(=O)CCCC/C=C/C(C)C)ccc1O [capsaicin] | Neither the high affinity TRPV1 ligands capsaicin [38], PDDHV [39], and CAY-100448 [40] nor the TRPA1 ligand HC-030031 [41] produced significant displacement |  |  |
| O=C(Oc1cccc2ccccc12)c1cn(Cc2ccc(F)cc2)c2ccccc12 [FDU-PB-22] | failed to displace | failed to displace |  |
| OCCOc1ccc(/C(=C(/CCCl)c2ccccc2)c2ccccc2)cc1 [OSP, ospemifene] | failed to displace |  | displacement of [^3H]WIN-55,212-2 [1]: failed to displace |
| C=C(C)[C@@H]1CCC(C)=C[C@H]1c1c(O)cc(CCCCC)cc1O [CBD, cannabidiol] | failed to displace | failed to displace |  |
| Cc1c(C(=O)NN2CCCCC2)nn(-c2ccc(Cl)cc2Cl)c1-c1ccc(I)cc1 [AM-251] |  |  | attenuation of GW-405833 (50 μM)-induced reduction in ATP concentrations [5]: significantly attenuated reductions in ATP concentrations produced by GW-405833; MMP on co-incubation with GW-405833 (10 μM) ([4]; 10 μM ligand co-incubated): MMP was not significantly reduced from vehicle-treated levels |
| COc1ccc2c(c1)CCC(c1ccccc1)=C2c1ccc(OCCN2CCCC2)cc1 [nafoxidine] | produced significant (but less) displacement | produced significant (but less) displacement | modulation of [^35S]GTPγS binding [6]: had no effect on G protein activity; modulation of [^35S]GTPγS binding [7]: had no effect on G protein activity |
| O=C(NC12CC3CC(CC(C3)C1)C2)c1nn(CCCCCF)c2ccccc12 [5F-AKB48] | failed to displace |  | displacement of [^3H]WIN-55,212-2 [1]: failed to displace |
| CC(C)[C@H](NC(=O)c1nn(CCCCCF)c2ccccc12)C(N)=O [5F-AB-PINACA] | failed to displace | failed to displace |  |
| CCCCC/C=C\C/C=C\C/C=C\C/C=C\CCCC(=O)NCCCl [ACEA] | failed to displace |  | displacement of [^3H]WIN-55,212-2 [1]: failed to displace |
| CCCCCc1cc(O)c2c(c1)OC(C)(C)[C@@H]1CCC(C)=C[C@@H]21 [THC, Δ^9-tetrahydrocannabinol] | failed to displace | failed to displace |  |
| Cc1ccc(C(=O)c2cn(CCCCCF)c3ccccc23)c2ccccc12 [MAM-2201] | failed to displace | failed to displace |  |
| CCCCCCCC/C=C\CCCCCCCC(=O)N[C@H](C(=O)O)C(C)C [N-oleoyl-valine] | 15 ± 2.7% |  |  |
| CCCCCCCCCC(=O)O[C@@H]1[C@@H](C)[C@@]2(O)[C@@H](C=C(COC(=O)Cc3ccc(O)c(OC)c3)C[C@]3(O)C(=O)C(C)=C[C@@H]23)[C@@H]2C(C)(C)[C@]12OC(=O)CCCCCCCCC [PDDHV] | Neither the high affinity TRPV1 ligands capsaicin [38], PDDHV [39], and CAY-100448 [40] nor the TRPA1 ligand HC-030031 [41] produced significant displacement |  |  |
| CC(C)c1ccc(NC(=O)Cn2cnc3c2c(=O)n(C)c(=O)n3C)cc1 [HC-030031] | Neither the high affinity TRPV1 ligands capsaicin [38], PDDHV [39], and CAY-100448 [40] nor the TRPA1 ligand HC-030031 [41] produced significant displacement |  |  |
